In publication PMC4303209, “A novel phosphatidylinositol 3-kinase (PI3K) inhibitor directs a potent FOXO-dependent, p53-independent cell cycle arrest phenotype characterized by the differential induction of a subset of FOXO-regulated genes” (Breast Cancer Research : BCR, 2014):

Test system: MCF-7 breast cancer cells
Assay: Microarray gene expression analysis (Agilent whole human genome 4 x 44K; compound vs DMSO, LIMMA log2 fold change)
Type: cell-based
Settings: Apoptosis genes

For `Cn1ncc2c(N3CCOCC3)nc(-c3cccc(O)c3)nc21` [ETP-45658], the “ITGB3BP log2FC” value (Gene 23421) was 0.773, the “RYBP log2FC” value (Gene 23429) was 0.520 and the “HEY2 log2FC” value (Gene 23493) was -0.060. The “SCRIB log2FC” value (Gene 23513) was -0.165, the “CLCF1 log2FC” value (Gene 23529) was -0.993 and the “PRAME log2FC” value (Gene 23532) was -0.401. The “DDAH2 log2FC” value (Gene 23564) was 0.126, the “ZNF346 log2FC” value (Gene 23567) was 0.167 and the “CASP14 log2FC” value (Gene 23581) was -0.095. The “NUP62 log2FC” value (Gene 23636) was -0.576, the “PPP1R15A log2FC” value (Gene 23645) was 1.011 and the “AIPL1 log2FC” value (Gene 23746) was -0.252. For the same compound, the “FKBP8 log2FC” value (Gene 23770) was -0.132, the “BCL2L13 log2FC” value (Gene 23786) was 0.179 and the “MTCH1 log2FC” value (Gene 23787) was 0.077. For the same compound, the “NGEF log2FC” value (Gene 25791) was 0.588, the “SPDEF log2FC” value (Gene 25803) was -0.326 and the “TNFAIP8 log2FC” value (Gene 25816) was 0.706. The “PRDX5 log2FC” value (Gene 25824) was -0.074, the “BRMS1 log2FC” value (Gene 25855) was -0.580 and the “SIN3A log2FC” value (Gene 25942) was 0.788. The “HIGD1A log2FC” value (Gene 25994) was 0.198, the “SERBP1 log2FC” value (Gene 26135) was 0.313 and the “NOC2L log2FC” value (Gene 26155) was -0.773. For the same compound, the “TIAM2 log2FC” value (Gene 26230) was 0.410, the “AATF log2FC” value (Gene 26574) was -0.362 and the “GREM1 log2FC” value (Gene 26585) was -0.311. For the same compound, the “CKAP2 log2FC” value (Gene 26586) was 0.829, the “CYFIP2 log2FC” value (Gene 26999) was -0.154 and the “NGFRAP1 log2FC” value (Gene 27018) was 0.134. For the same compound, the “ANKRD1 log2FC” value (Gene 27063) was 0.342, the “GHITM log2FC” value (Gene 27069) was 0.501 and the “BBC3 log2FC” value (Gene 27113) was 2.148. For the same compound, the “CIDEB log2FC” value (Gene 27141) was -0.076, the “GLS2 log2FC” value (Gene 27165) was 0.175 and the “TNFRSF21 log2FC” value (Gene 27242) was -1.178. For the same compound, the “PDCD4 log2FC” value (Gene 27250) was 1.281, the “KLHL20 log2FC” value (Gene 27252) was 0.174 and the “CECR2 log2FC” value (Gene 27443) was -0.568. For the same compound, the “DBNL log2FC” value (Gene 28988) was -0.399, the “HIPK2 log2FC” value (Gene 28996) was -0.166 and the “SAP30BP log2FC” value (Gene 29115) was -0.314. For the same compound, the “LGALS13 log2FC” value (Gene 29124) was -0.151, the “CARD10 log2FC” value (Gene 29775) was -0.324 and the “SENP1 log2FC” value (Gene 29843) was 0.416. For the same compound, the “TFPT log2FC” value (Gene 29844) was -0.708, the “PNMA3 log2FC” value (Gene 29944) was 0.559 and the “UBQLN1 log2FC” value (Gene 29979) was 0.311. The “ERO1L log2FC” value (Gene 30001) was 0.255, the “SH3KBP1 log2FC” value (Gene 30011) was 0.491 and the “KCNIP3 log2FC” value (Gene 30818) was 0.159. For the same compound, the “RRM2B log2FC” value (Gene 50484) was 0.508, the “G0S2 log2FC” value (Gene 50486) was -0.063 and the “NOX4 log2FC” value (Gene 50507) was -0.318. For the same compound, the “CHST11 log2FC” value (Gene 50515) was -0.798, the “ARHGEF4 log2FC” value (Gene 50649) was 0.114 and the “ARHGEF3 log2FC” value (Gene 50650) was 0.584. For the same compound, the “GLRX2 log2FC” value (Gene 51022) was -0.287, the “RPS27L log2FC” value (Gene 51065) was 0.265 and the “APIP log2FC” value (Gene 51074) was 0.142. The “NDUFA13 log2FC” value (Gene 51079) was -0.190, the “GAL log2FC” value (Gene 51083) was -0.531 and the “SH3GLB1 log2FC” value (Gene 51100) was 0.592. The “APH1A log2FC” value (Gene 51107) was -0.202, the “UTP11L log2FC” value (Gene 51118) was -0.844 and the “IER3IP1 log2FC” value (Gene 51124) was 0.463. For the same compound, the “ANGPTL4 log2FC” value (Gene 51129) was -0.967, the “ING4 log2FC” value (Gene 51147) was 1.465 and the “LEF1 log2FC” value (Gene 51176) was -0.842. The “BFAR log2FC” value (Gene 51283) was 0.564, the “PLAC8 log2FC” value (Gene 51316) was -0.141 and the “TNFRSF12A log2FC” value (Gene 51330) was -0.850. The “ANGPT4 log2FC” value (Gene 51378) was -0.106, the “DDX41 log2FC” value (Gene 51428) was -0.212 and the “GULP1 log2FC” value (Gene 51454) was 1.616. For the same compound, the “TRIAP1 log2FC” value (Gene 51499) was -0.820, the “ZC3HC1 log2FC” value (Gene 51530) was 0.230 and the “PIAS4 log2FC” value (Gene 51588) was -0.216. The “PIGT log2FC” value (Gene 51604) was 0.174, the “TAF9B log2FC” value (Gene 51616) was 0.427 and the “PTRH2 log2FC” value (Gene 51651) was -0.336. The “WWOX log2FC” value (Gene 51741) was -0.809, the “SIX4 log2FC” value (Gene 51804) was 0.564 and the “IL20RA log2FC” value (Gene 53832) was 0.097. The “CYCS log2FC” value (Gene 54205) was -0.446, the “WNT4 log2FC” value (Gene 54361) was -0.709 and the “DNAJC10 log2FC” value (Gene 54431) was 0.727. The “ZFAND6 log2FC” value (Gene 54469) was 0.430, the “ADAMTSL4 log2FC” value (Gene 54507) was -0.301 and the “DDIT4 log2FC” value (Gene 54541) was -0.893. For the same compound, the “ING3 log2FC” value (Gene 54556) was 0.777, the “RRN3 log2FC” value (Gene 54700) was -0.293 and the “AHI1 log2FC” value (Gene 54806) was 0.585. For the same compound, the “QRICH1 log2FC” value (Gene 54870) was -0.061, the “TMEM161A log2FC” value (Gene 54929) was -0.567 and the “PHIP log2FC” value (Gene 55023) was 1.243. The “USP47 log2FC” value (Gene 55031) was 0.762, the “OXR1 log2FC” value (Gene 55074) was 0.502 and the “UACA log2FC” value (Gene 55075) was 0.817. The “IFT57 log2FC” value (Gene 55081) was 0.552, the “XKR8 log2FC” value (Gene 55113) was 0.287 and the “SHQ1 log2FC” value (Gene 55164) was -0.250. For the same compound, the “FAIM log2FC” value (Gene 55179) was 0.209, the “MAP1S log2FC” value (Gene 55201) was -0.375 and the “ATAD3A log2FC” value (Gene 55210) was -0.394. For the same compound, the “STEAP3 log2FC” value (Gene 55240) was -0.569, the “RHOT1 log2FC” value (Gene 55288) was 0.620 and the “RFK log2FC” value (Gene 55312) was 0.519. For the same compound, the “PARL log2FC” value (Gene 55486) was -0.133, the “TNFRSF19 log2FC” value (Gene 55504) was -0.110 and the “CCAR1 log2FC” value (Gene 55749) was 0.836. For the same compound, the “PCID2 log2FC” value (Gene 55795) was 0.322, the “RNF130 log2FC” value (Gene 55819) was 0.142 and the “EAF2 log2FC” value (Gene 55840) was 0.438. For the same compound, the “PSENEN log2FC” value (Gene 55851) was -0.304, the “BCAP29 log2FC” value (Gene 55973) was 0.449 and the “TEX11 log2FC” value (Gene 56159) was -0.066. For the same compound, the “CTNNBL1 log2FC” value (Gene 56259) was -0.141, the “DIABLO log2FC” value (Gene 56616) was -0.193 and the “ASAH2 log2FC” value (Gene 56624) was -0.191. The “TRIM39 log2FC” value (Gene 56658) was -0.084, the “BARHL1 log2FC” value (Gene 56751) was -0.269 and the “FMN2 log2FC” value (Gene 56776) was 0.105. For the same compound, the “SPHK2 log2FC” value (Gene 56848) was -0.628, the “C8orf4 log2FC” value (Gene 56892) was -0.080 and the “MEIS3 log2FC” value (Gene 56917) was -0.061. For the same compound, the “DUSP22 log2FC” value (Gene 56940) was 0.419, the “CIAPIN1 log2FC” value (Gene 57019) was -0.388 and the “PCBP4 log2FC” value (Gene 57060) was -0.519. For the same compound, the “AVEN log2FC” value (Gene 57099) was -0.627, the “CAMK1D log2FC” value (Gene 57118) was -0.141 and the “RTN4 log2FC” value (Gene 57142) was 0.129. The “PAK7 log2FC” value (Gene 57144) was 0.396, the “BIRC6 log2FC” value (Gene 57448) was 0.155 and the “TAOK1 log2FC” value (Gene 57551) was 0.386. For the same compound, the “SEMA6A log2FC” value (Gene 57556) was -0.108, the “SH3RF1 log2FC” value (Gene 57630) was -0.399 and the “USP28 log2FC” value (Gene 57646) was 0.268. For the same compound, the “GPAM log2FC” value (Gene 57678) was 0.310, the “CHD8 log2FC” value (Gene 57680) was -0.199 and the “TRIB3 log2FC” value (Gene 57761) was 0.343. The “NGB log2FC” value (Gene 58157) was -0.410, the “RBM25 log2FC” value (Gene 58517) was 0.406 and the “SAV1 log2FC” value (Gene 60485) was 0.676. For the same compound, the “PROK2 log2FC” value (Gene 60675) was -0.050, the “ELMO2 log2FC” value (Gene 63916) was 0.581 and the “CIDEC log2FC” value (Gene 63924) was 0.346. The “FIGNL1 log2FC” value (Gene 63979) was -0.206, the “PERP log2FC” value (Gene 64065) was 0.653 and the “MOAP1 log2FC” value (Gene 64112) was 1.318. The “RRAGC log2FC” value (Gene 64121) was 1.860, the “IFIH1 log2FC” value (Gene 64135) was 0.885 and the “ZMAT3 log2FC” value (Gene 64393) was -0.105. For the same compound, the “ATG3 log2FC” value (Gene 64422) was 0.283, the “SUDS3 log2FC” value (Gene 64426) was -0.126 and the “MICAL1 log2FC” value (Gene 64780) was -0.454. The “PLEKHG2 log2FC” value (Gene 64857) was -0.832.
